What is called LD50 is the dose at which mortality reaches 50%. Read a low LD50 as a more toxic substance.

The subject of data set [1] is 5 microorganisms tested (S. epidermidis, S. aureus, E. coli, P. aeruginosa, C. albicans). In words: Mean MIC over the panel and selectivity index (Example 1). Format: cell-based. Here is the method: Red blood cells suspension incubated with PBS was used as negative control.
Data set [2] can be described thus: Acute in vivo toxicity, intravenous tail vein injection. As to conditions: mouse, mice. As for the experimental part: For the β-sheet forming peptides to qualify as suitable therapeutic candidates, their antimicrobial activities should be considered in the light of their selectivity for microbial cell membranes so as to minimize toxicities towards mammalian cells. […] The selectivity indices (SIs) of the peptides were further evaluated as a comparison of the safety and efficacies of the different peptide sequences (Table 2). SIs of the various peptides were calculated as the ratio of the HC10 value (defined as the lowest peptide concentration that induces 10% or more haemolysis) to the GM (geometric mean MICs of the 5 microbial strains tested). […] The acute in vivo toxicity testing was performed via intravenous tail vein injection of solutions containing representative peptides of n=2 [(IRIK)2-NH2 (SEQ ID NO: 17)] and n=3 [(IRVK)3-NH2 (SEQ ID NO: 22)] repeat units in mice.

Data set [3] concerns E. coli and S. aureus. In words: FE-SEM imaging of treated bacteria (Example 1). As to conditions: 2 h treatment. The data set is classed as cell-based, Escherichia coli, Staphylococcus aureus. Here is the method:
E. coli suspension at ˜3×10^8 CFU ml^−1 (100 μL) was incubated with an equal volume of broth containing 20% (by volume) of water and a lethal dose (250 mg L^−1) of a representative peptide in a 96 well-plate for 2 h. Eight replicates of each condition was pooled into a microfuge tube, pelleted down at 5000×g for 5 min, and rinsed twice with PBS. The samples were then fixed with 4% formaldehyde at room temperature for 15 min, followed by rinsing with DI water. Dehydration of the cells was performed using a series of graded ethanol solutions (35, 50, 75, 90, 95 and 100%). The samples were allowed to air-dry, mounted on carbon table, and sputter coated with platinum for imaging with a FE-SEM setup (JEOL JSM-7400F, Japan).

The subject of data set [4] is S. aureus biofilms. The data set is classed as cell-based, Staphylococcus aureus. As to conditions: 24 h. Here is the method:
The wells were then rinsed once with 100 μL of PBS to remove planktonic cells and loosely attached cells, and replenished with 100 μL of fresh broth. Biofilm formation was allowed to proceed up to 6-8 days with daily rinsing and media changes before use in experiments. […] Subsequently, the solutions were removed and 120 μL of activated XTT solution was added into each well. […] Relative cell viability was expressed as [(A490-[…])sample/(A490-[…])control]×100%.

For data set [5], the system named is S. aureus biofilms. In words: Biofilm biomass, crystal violet staining. The data set is classed as cell-based, Staphylococcus aureus. To be noted: MIC, 4×MIC, 8×MIC, 24 h. Here is the method: The biomass of the biofilms was estimated by a crystal violet staining assay. Briefly, the formed biofilms were first treated with the peptides for 24 h as described above. After aspirating the culture medium, the biofilms were washed once with PBS, fixed with methanol for 15 min at room temperature and stained with 100 μL of 0.1% (weight by volume) crystal violet for 10 min. The excess crystal violet dye was removed by rinsing the wells with DI water for five times. The dye that is associated with the biofilm was extracted using 100 μL of 33% glacial acetic acid per well and quantified by measuring the absorbance at a wavelength of 570 nm using a microplate reader (TECAN, Switzerland). The relative amount of biomass remaining after peptide treatment was expressed as a percentage of the control treated with broth containing 10% (by volume) of water. Data represent mean±standard deviations of four replicates per concentration.

The test system of data set [6] is rabbit red blood cells. The data set is classed as cell-based. As to conditions: red cells of rabbit, 1 h.
Data set [7] concerns trypsin and proteinase K. The data set is classed as in vitro ADME. Here is the method: One of the major factors limiting the clinical utility of AMPs lies in their instability to rapid degradation by proteases which are present abundantly in biological fluids and/or secreted by microorganisms. In order to evaluate the proteolytic stability of the designed β-sheet forming peptides, the D- and L-isoforms of the n=2 peptide sequence (IK8-all D or IK8-all L, respectively) were treated with the broad spectrum serine proteases, trypsin and proteinase K, for 6 h and evaluated their antimicrobial activities against S. aureus, E. coli and P. aeruginosa. […] The structural integrity of synthetic peptides following treatment with both proteases was also evaluated using MALDI-TOF mass spectroscopy. […] The cleavage sites of both enzymes for the IK8-all L peptide are illustrated in FIG. 19a with the mass spectra peaks assigned to the major fragments.

Data set [8] concerns P. aeruginosa. In words: MBC against clinical isolates. Format: cell-based. To be noted: clinical isolate.
The subject of data set [9] is C. neoformans. In words: MBC against clinical isolates. Format: cell-based. To be noted: clinical isolate.
Data set [10] has as its system F. solani. Format: cell-based. To be noted: 24 h. As for the experimental part:
The MICs of peptides were determined against the fungi C. albicans (American Type Culture Collection, ATCC) and F. solani (ATCC) by the broth microdilution method. […] F. solani, were cultured on sabouraud dextrose agar plates in incubator at 37° C. To collect conidia following incubation, conidia of F. solani species were harvested and standardized to 1×10^8 spores/ml before performing the experiments. Sabouraud dextrose broth (90 μL) was added to the wells of culture plates. […] The plates were incubated at 37° C. and examined macroscopically after 24 h for the growth of F. solani. Appropriate control wells without any treatment were included in the study. Peptide were considered to be active if the wells appeared clear without any visible growth of F. solani, and the results were expressed as MIC. The assay was performed in four replicates for each concentration.

Data set [11] deals with S. epidermidis. To be noted: 18 h.
In data set [12] the test system is S. aureus. To be noted: 18 h.
The subject of data set [13] is E. coli. As to conditions: 18 h.
In data set [14] the test system is P. aeruginosa. As to conditions: 18 h.
In data set [15] the test system is C. albicans. To be noted: 42 h.
The subject of data set [16] is S. epidermidis. To be noted: 18 h. This is another data set of the same source.
For data set [17], the system named is S. aureus. As to conditions: 18 h. The source holds these as a separate data set.
Data set [18] relates to E. coli. To be noted: 18 h. This is another data set of the same source.
For data set [19], the system named is P. aeruginosa. To be noted: 18 h. This is another data set of the same source.
In data set [20] the test system is C. albicans.
For data set [21], the system named is Methicillin-resistant S. aureus. As to conditions: clinical isolate.
For data set [22], the system named is A. baumanni.
Data set [23] relates to Vancomycin-resistant Enterococci. To be noted: clinical isolate.
Data set [24] deals with 5 microorganisms tested (S. epidermidis, S. aureus, E. coli, P. aeruginosa, C. albicans). In words: Mean MIC over the panel and selectivity index (Example 2).
Data set [25] deals with C. albicans keratitis. In words: Contact lens-associated C. albicans keratitis mouse model.
The subject of data set [26] is clinically isolated Mycobacterium tuberculosis.
Data set [27] concerns E. coli. Format: cell-based, Escherichia coli.
Data set [28] deals with mice. As to conditions: reported values; cited from earlier work.
Setting [29] is: topical eye drops, peptides 3000 mg/L, amphotericin B 1000 mg/L.

Converted amounts (≈) assume the structure as drawn. Like-named read-outs stand apart in the source and are kept apart here. Square brackets hold non-standard residues; d marks the D form. Peptide text beside a SMILES is read from it.

With `CC[C@H](C)[C@H](N)C(=O)N[C@@H](CCCNC(=N)N)C(=O)N[C@H](C(=O)N[C@@H](CCCCN)C(=O)N[C@H](C(=O)N[C@@H](CCCNC(=N)N)C(=O)N[C@H](C(=O)N[C@@H](CCCCN)C(N)=O)[C@@H](C)CC)[C@@H](C)CC)[C@@H](C)CC` [(IRIK)2-NH2] (H-IRIKIRIK-NH2; N-terminus assumed), the “GM, geometric mean of MIC values for the 5 microorganisms tested” value (shortened to “GM, geometric mean of MIC values”) in data set [1] and in [24] was 23.4 µg/mL throughout. The LD50 in [2] was found to be 35.2 mg/kg. The “surface morphology under FE-SEM” value in data set [3] is “rough and uneven”. Also, in data set [4] (MIC, 4×MIC, 8×MIC), the “killing of S. aureus residing in biofilms” value is recorded as “dose-dependent killing”. Further, in data set [4] (Staphylococcus aureus, 4 ×MIC), the “cell viability of S. aureus in biofilms” value is “less than 10%”. Also, the “amount of biomass in the treated biofilms” value in data set [5] is recorded as “reduced in a dose-dependent manner”. For the same compound, the “HC10, haemolysis concentration 10%: lowest peptide concentration that induces ≧10% haemolysis” value in [6] came to 2000 mg/L. Besides, the “antimicrobial activity after protease treatment” value in [7] is “complete loss in bacterial inhibitory activities”. In data set [7], the “structural integrity after protease treatment, MALDI-TOF MS” value is “degradation of the intact peptide”. For the same compound, the “MBC P. aeruginosa” value in [8] was 7.8 µg/mL (≈ 7.51 µM). Also, in data set [9], the “MBC C. neoformans” value was 7.8 µg/mL (≈ 7.51 µM). Besides, in data set [10], the “MIC F. solani” value stood at 31.3 µg/mL (≈ 30.1 µM). The “MIC S. epidermidis” value in data set [11] and in data set [16] was 3.9 µg/mL (≈ 3.76 µM) in each case. In addition, the “MIC S. aureus” value in data set [12] and in data set [17] was 62.5 µg/mL (≈ 60.2 µM) throughout. In addition, the “MIC E. coli” value in [13] and in [18] was 15.6 µg/mL (≈ 15 µM) throughout. Further, the “MIC P. aeruginosa” value in [14] came out at 31.3 µg/mL (≈ 30.1 µM). For the same compound, the “MIC C. albicans” value in [15] and in data set [20] was 3.9 µg/mL (≈ 3.76 µM) each time. The “MIC P aeruginosa” value in data set [19] came out at 31.3 µg/mL (≈ 30.1 µM). In addition, the “MBC Methicillin-resistant S. aureus” value in data set [21] amounted to 31.3 µg/mL (≈ 30.1 µM). The “MBC A. baumanni” value in data set [22] stood at 125 µg/mL (≈ 120 µM). In addition, the “MBC Vancomycin-resistant Enterococci” value in data set [23] was 15.6 µg/mL (≈ 15 µM). Also, the “fungal cells eradicated from the biofilms compared to the untreated control group” value in data set [25] (C. albicans counts in mice cornea, agar plating) was about 90%. Further, the “depth of hyphal invasion into the cornea, PAS histology” value in data set [25] (setting [29]) is “reduced the maximal depth of hyphal invasion”. Moreover, the “resolution of the keratitis infection (eye appearance)” value in data set [25] (setting [29]) is “significant resolution of the keratitis infection”. In addition, the “clinical scores of mice corneas (slit lamp)” value in [25] (topical eye drops, peptides 3000 mg/L, amphotericin B 1000 mg/L, P<0.01) is given as “significantly lower than that in the control group”.

Regarding `CC[C@H](C)[C@H](N)C(=O)N[C@@H](CCCNC(=N)N)C(=O)N[C@H](C(=O)N[C@H](CCCCN)C(=O)N[C@H](C(=O)N[C@H](CCCNC(=N)N)C(=O)N[C@H](C(=O)N[C@@H](CCCCN)C(N)=O)[C@@H](C)CC)[C@@H](C)CC)[C@@H](C)CC` [IK8-2D, IRIkIrIK-NH2] (H-IRI[dK]I[dR]IK-NH2; N-terminus assumed), in [6], the “HC10, haemolysis concentration 10%: lowest peptide concentration that induces ≧10% haemolysis” value was 1600 mg/L. In addition, in [16], the “MIC S. epidermidis” value was found to be 3.9 µg/mL (≈ 3.76 µM). Moreover, the “MIC S. aureus” value in data set [17] was 31.3 µg/mL (≈ 30.1 µM). Also, the “MIC E. coli” value in [18] was determined as 15.6 µg/mL (≈ 15 µM). Further, the “MIC P aeruginosa” value in data set [19] amounted to 7.8 µg/mL (≈ 7.51 µM). In addition, the “MIC C. albicans” value in [20] is 3.9 µg/mL (≈ 3.76 µM). Besides, the “MIC M. tuberculosis” value was determined as 62.5 µg/mL (≈ 60.2 µM) in data set [26] (strain number 1173), 62.5 µg/mL (≈ 60.2 µM) in data set [26] (strain number 1177), 62.5 µg/mL (≈ 60.2 µM) in data set [26] (strain number 1178) and 125 µg/mL (≈ 120 µM) in data set [26] (strain number 1179). Also, the “GM, geometric mean of MIC values” value in data set [24] was determined as 12.5 µg/mL.

As for gentamicin sulfate, the MICn/MIC0 in data set [27] (passage 2) was 2; in [27] (passage 6), 4.

With Polymyxin B [reference compound], in data set [1], the “GM, geometric mean of MIC values” value came out at 41.4 µg/mL. Moreover, in data set [11], the “MIC S. epidermidis” value was 15.6 µg/mL. For the same compound, the “MIC S. aureus” value in [12] amounted to 125 µg/mL. Further, the “MIC E. coli” value in data set [13] was 2.0 µg/mL. In data set [14], the “MIC P. aeruginosa” value was 2.0 µg/mL. Besides, the “MIC C. albicans” value in data set [15] (room temperature) is 62.5 µg/mL. Also, the “LD50 reported for comparator” value in data set [28] is given as 5.4 mg/kg.

Consider gramicidin, for which the “LD50 reported for comparator” value in data set [28] is given as 1.5 mg/kg.

The values are drawn from patent publication US9221875B2, “Amphiphilic peptides for treatment of keratitis” (Agency for Science, Technology and Research, priority 2013, dated 2015).
